Patent US20250009769A1, “USE OF LYSOPHOSPHATIDIC ACID (LPA) IN CONTROLLING PORCINE INFECTIOUS DIARRHEA” (SICHUAN AGRICULTURAL UNIVERSITY, priority 2023, published 2025)
Marks after values point to notes of the source that are not given here.

Legend:
[1] = system: ETEC; test: Intestinal tissue morphology of piglets infected with ETEC, dietary 0.3% LPA (Example 1); format: in vivo, DLY weaned piglets; details: for Duodenum V/C ratio / Ileum V/C ratio / Jejunum V/C ratio: villus height/crypt depth
Protocol: (§1) 25-day-old DLY weaned piglets were selected, with an average weight of (7.24±0.07) kg.
(§2) In the experiment, 32 piglets were divided into 4 groups with 8 replicates in each group, and the experimental period was 21 d. […] Slaughtering and sampling were conducted on the morning of day 21 of the experiment.
ETEC challenge reduced villus height and V/C in the duodenum and ileum (P<0.05), and increased crypt depth in the ileum (P<0.05). […] Furthermore, the LPA reduced the crypt depth and increased the villus height/crypt depth (V/C) ratio in the ileum of ETEC-challenged piglets (P<0.05).

[2] = parameters: species or system DLY weaned piglets; details: in vivo
Protocol: as §1, §2

[3] = system: ETEC; test: Diarrhea rate caused by Escherichia coli in weaned piglets, dietary 0.2% LPA (Example 2); format: in vivo, DLY weaned piglets; details: ETEC + LPA group: 0.2% LPA in diet
Protocol: 21-day-old DLY weaned piglets were selected, with an average weight of (6.23±0.82) kg.
In the experiment, 24 piglets were divided into 3 groups, each group had 8 replicates, and the experimental period was 21 d. […] Slaughtering and sampling were conducted on the morning of day 21 of the experiment.

[4] = system: ETEC; test: Intestinal permeability of piglets infected with ETEC, dietary 0.3% LPA (Example 1); format: in vivo, DLY weaned piglets
Protocol: as §1, §2

[5] = system: ETEC; test: Diarrhea rate and diarrhea index of weaned piglets after ETEC challenge, dietary 0.3% LPA (Example 1); format: in vivo, DLY weaned piglets
Protocol: as §1, §2

[6] = LPA + ETEC group: 0.3% LPA, ETEC challenge
[7] = LPA + ETEC group: diet with 0.3% LPA, ETEC challenge on day 18
[8] = LPA group: diet with 0.3% LPA, saline instead of ETEC

In the case of `CCCCCCCC/C=C\CCCCCCCC(=O)OC[C@@H](O)COP(=O)([O-])[O-].[Na+].[Na+]` [LPA, 1-oleoyl-sn-glycerol 3-phosphate sodium salt], the Duodenum crypt depth [1, 6] is reported as 273.45 ± 9.78 ^ μm, the Duodenum villus height [1, 6] is reported as 452.55 ± 11.68^b μm and the Ileum crypt depth [1, 6] is reported as 170.08 ± 4.12^b μm. The Ileum villus height [1, 6] was 378.37 ± 13.76^a μm, the Jejunum crypt depth [1, 6] was 177.98 ± 6.30 ^ μm and the Jejunum villus height [1, 6] was 360.56 ± 10.87 ^ μm. The “Duodenum V/C ratio” value [1, 6] was 1.65 ± 1.19^b, the “Ileum V/C ratio” value [1, 6] was 2.22 ± 3.34^b and the “Jejunum V/C ratio” value [1, 6] was 2.02 ± 1.73^. For the same compound, the Duodenum crypt depth ([1]; LPA group: 0.3% LPA, no ETEC) was 270.03 ± 8.13 μm, the Duodenum villus height ([1]; LPA group: 0.3% LPA, no ETEC) was 493.34 ± 12.43^a μm and the Ileum crypt depth ([1]; LPA group: 0.3% LPA, no ETEC) was 150.45 ± 4.89^b μm. For the same compound, the Ileum villus height ([1]; LPA group: 0.3% LPA, no ETEC) was 401.46 ± 13.45^a μm, the Jejunum crypt depth ([1]; LPA group: 0.3% LPA, no ETEC) was 160.98 ± 3.23 μm and the Jejunum villus height ([1]; LPA group: 0.3% LPA, no ETEC) was 377.28 ± 9.89 μm. For the same compound, the “Duodenum V/C ratio” value ([1]; LPA group: 0.3% LPA, no ETEC) was 1.83 ± 1.53^a, the “Ileum V/C ratio” value ([1]; LPA group: 0.3% LPA, no ETEC) was 2.67 ± 2.75^a and the “Jejunum V/C ratio” value ([1]; LPA group: 0.3% LPA, no ETEC) was 2.34 ± 3.06. For the same compound, the “Impact on piglet growth performance” value [2] was “no significant negative impact on piglet growth performance”, the Diarrhea index ([3]; after challenge) was 1.98^b and the Diarrhea rate ([3]; after challenge) was 33.56 ± 0.28^b %. For the same compound, the Diarrhea index ([3]; before challenge) was 1.68, the Diarrhea rate ([3]; before challenge) was 11.86 ± 0.15^b % and the D-lactic acid [4, 6] was 1.53 ± 0.93^b mg/L. The DAO [4, 6] was 335.62 ± 14.23^b pg/mL, the Fluid accumulation rate [4, 6] was 1.42 ± 0.68^b and the LPS [4, 6] was 49.13 ± 2.56^b ng/L. For the same compound, the D-lactic acid ([4]; LPA group: 0.3% LPA, no ETEC) was 1.69 ± 0.22^b mg/L, the DAO ([4]; LPA group: 0.3% LPA, no ETEC) was 330.43 ± 12.78^b pg/mL and the Fluid accumulation rate ([4]; LPA group: 0.3% LPA, no ETEC) was 1.32 ± 1.21^b. The LPS ([4]; LPA group: 0.3% LPA, no ETEC) was 48.23 ± 5.23^b ng/L, the Diarrhea index [5, 7] was 0.75 ± 0.56^b and the Diarrhea rate [5, 7] was 37.50 ± 27.99^b %. For the same compound, the Diarrhea index [5, 8] was 0.00 ± 0.00^c and the Diarrhea rate [5, 8] was 0.00 ± 0.00^c %.
